# Source: patent US6737383B1, “Herbicidal oxadiazolidines” (priority 1999, dated 2004)
# What was measured:
# blackgrass = test: Test B pre/postemergence blackgrass; format: in vivo, Alopecurus myosuroides
# Procedure, shortened: (§1)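 Response is a visual 0-to-10 score relative to untreated plants, where 0 means no effect and 10 means complete control, taken twelve to sixteen days after application. Treatments went onto soil at planting and onto foliage of 1- to 4-leaf plants, using a surfactant-containing non-phytotoxic solvent.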
# duck salad = test: Test B flood test duck salad; format: in vivo, Heteranthera limosa
# Experimental: (§2) At the same time, these crop and weed species were also treated with postemergence applications of test chemicals formulated in the same manner. Plants ranged in height from 2 to 18 cm (1- to 4-leaf stage) for postemergence treatments. Plant species in the flood test consisted of rice (Oryza sativa), smallflower flatsedge (Cyperus difformis), duck salad (Heteranthera limosa) and bamyardgrass (Echinochloa crus-galli) grown to the 2-leaf stage for testing. Treated plants and controls were maintained in a greenhouse for twelve to sixteen days, after which all species were compared to controls and visually evaluated. Plant response ratings, summarized in Table B, are based on a scale of 0 to 10 where 0 is no effect and 10 is complete control. A dash (−) response means no test result.
# wheat = test: Test B pre/postemergence wheat; format: in vivo, Triticum aestivum
# Procedure, shortened: as §1
# wild oat = test: Test B pre/postemergence wild oat; format: in vivo, Avena fatua
# Procedure, shortened: as §1
# giant foxtail = test: Test B pre/postemergence giant foxtail; format: in vivo, Setaria faberii
# Procedure, shortened: as §1
# velvetleaf = test: Test B pre/postemergence velvetleaf; format: in vivo, Abutilon theophrasti
# Procedure, shortened: as §1
# purple nutsedge = test: Test B pre/postemergence purple nutsedge; format: in vivo, Cyperus rotundus
# Procedure, shortened: as §1
# corn = test: Test B pre/postemergence corn; format: in vivo, Zea mays
# Procedure, shortened: as §1
# rape = test: Test B pre/postemergence rape; format: in vivo, Brassica napus
# Procedure, shortened: as §1
# smallflower flatsedge = test: Test B flood test smallflower flatsedge; format: in vivo, Cyperus difformis
# Experimental: as §2
# soybean = test: Test B pre/postemergence soybean; format: in vivo, Glycine max
# Procedure, shortened: as §1
# sugar beet = test: Test B pre/postemergence sugar beet; format: in vivo, Beta vulgaris
# Procedure, shortened: as §1
# cocklebur = test: Test B pre/postemergence cocklebur; format: in vivo, Xanthium strumarium
# Procedure, shortened: as §1
# pigweed = test: Test B pre/postemergence pigweed; format: in vivo, Amaranthus retroflexus
# Procedure, shortened: as §1
# bamyardgrass = test: Test B flood test barnyardgrass; format: in vivo, Echinochloa crus-galli
# Experimental: as §2
# crabgrass = test: Test B pre/postemergence crabgrass; format: in vivo, Digitaria sanguinalis
# Procedure, shortened: as §1
# bedstraw = test: Test B pre/postemergence bedstraw; format: in vivo, Galium aparine
# Procedure, shortened: as §1
# morningglory = test: Test B pre/postemergence morningglory; format: in vivo, Ipomoea hederacea
# Procedure, shortened: as §1
# surinam grass = test: Test B pre/postemergence surinam grass; format: in vivo, Brachiaria decumbens
# Procedure, shortened: as §1
# [1] = Postemergence, Rate 62 g/ha, scale of 0 to 10, 0 is no effect, 10 is complete control
# [2] = Postemergence, Rate 125 g/ha, scale 0 to 10, 0 is no effect, 10 is complete control
# [3] = Postemergence, Rate 500 g/ha, scale 0 to 10, 0 is no effect, 10 is complete control
# [4] = Preemergence, Rate 62 g/ha, scale of 0 to 10 where 0 is no effect and 10 is complete control
# [5] = Preemergence, Rate 125 g/ha, scale 0 to 10, 0 is no effect, 10 is complete control
# [6] = Rate 250 g/ha, Postemergence, scale of 0 to 10 where 0 is no effect and 10 is complete control
# [7] = Rate 62 g/ha, flood test species, Pre-emergence, visual evaluation after twelve to sixteen days
# [8] = Rate 125 g/ha, under heading Pre-emergence, flood test species, visual evaluation after twelve to sixteen days
# [9] = Rate 250 g/ha, Pre-emergence (flood test species), scale 0 to 10, 0 is no effect, 10 is complete control
# [10] = Rate 500 g/ha, Pre-emergence section of Table B, 0 to 10 scale (0 no effect, 10 complete control)
# [11] = Preemergence, Rate 500 g/ha, scale of 0 to 10 where 0 is no effect and 10 is complete control
compound,measurement,setting,value
CCCCCn1c(=O)on(C(=O)N(c2ccc(Cl)cc2)C(C)C)c1=O [Compound 528],Blackgrass plant response rating,blackgrass; [1],0
same,Blackgrass plant response rating,blackgrass; [2],0
same,"Plant response rating, Blackgrass",blackgrass; [3],5
same,"Plant response rating, Blackgrass",blackgrass; [4],0
same,Blackgrass plant response rating,blackgrass; [5],0
same,Blackgrass plant response rating (0 to 10 scale),"blackgrass; Preemergence, Rate 250 g/ha",0
same,"Plant response rating, Blackgrass",blackgrass; [6],0
same,"Plant response rating, Ducksalad (0 to 10 scale, 0 is no effect, 10 is complete control)",duck salad; [7],0
same,"Ducksalad plant response rating (0 to 10 scale, 0 is no effect, 10 is complete control)",duck salad; [8],0
same,Ducksalad plant response rating,duck salad; [9],0
same,Ducksalad plant response rating,duck salad; [10],0
same,Wheat plant response rating,wheat; [1],0
same,Wheat plant response rating,wheat; [2],0
same,"Plant response rating, Wheat",wheat; [3],0
same,"Plant response rating, Wheat",wheat; [4],0
same,Wheat plant response rating,wheat; [5],0
same,Wheat plant response rating (0 to 10 scale),"wheat; Preemergence, Rate 250 g/ha",0
same,"Plant response rating, Wheat",wheat; [6],0
same,Wild oats plant response rating,wild oat; [1],0
same,Wild oats plant response rating,wild oat; [2],0
same,"Plant response rating, Wild oats",wild oat; [3],0
same,"Plant response rating, Wild oats",wild oat; [4],0
same,Wild oats plant response rating,wild oat; [5],0
same,Wild oats plant response rating (0 to 10 scale),"wild oat; Preemergence, Rate 250 g/ha",0
same,"Plant response rating, Wild oats",wild oat; [6],0
same,Giant foxtail plant response rating,giant foxtail; [1],0
same,Giant foxtail plant response rating,giant foxtail; [2],3
same,"Plant response rating, Giant foxtail",giant foxtail; [3],9
same,"Plant response rating, Giant foxtail",giant foxtail; [4],9
same,Giant foxtail plant response rating,giant foxtail; [5],10
same,Giant foxtail plant response rating (0 to 10 scale),"giant foxtail; Preemergence, Rate 250 g/ha",10
same,Giant foxtail plant response rating,giant foxtail; [11],10
same,"Plant response rating, Giant foxtail",giant foxtail; [6],3
same,Velvetleaf plant response rating,velvetleaf; [1],0
same,Velvetleaf plant response rating,velvetleaf; [2],4
same,"Plant response rating, Velvetleaf",velvetleaf; [3],5
same,"Plant response rating, Velvetleaf",velvetleaf; [4],0
same,Velvetleaf plant response rating,velvetleaf; [5],0
same,Velvetleaf plant response rating (0 to 10 scale),"velvetleaf; Preemergence, Rate 250 g/ha",0
same,Velvetleaf plant response rating,velvetleaf; [11],0
same,"Plant response rating, Velvetleaf",velvetleaf; [6],4
same,Nutsedge plant response rating,purple nutsedge; [2],0
same,"Plant response rating, Nutsedge",purple nutsedge; [3],6
same,"Plant response rating, Nutsedge",purple nutsedge; [4],0
same,Nutsedge plant response rating,purple nutsedge; [5],0
same,Nutsedge plant response rating (0 to 10 scale),"purple nutsedge; Preemergence, Rate 250 g/ha",0
same,Nutsedge plant response rating,purple nutsedge; [11],0
same,"Plant response rating, Nutsedge",purple nutsedge; [6],0
same,Corn plant response rating,corn; [1],0
same,Corn plant response rating,corn; [2],0
same,"Plant response rating, Corn",corn; [3],0
same,"Plant response rating, Corn",corn; [4],0
same,Corn plant response rating,corn; [5],0
same,Corn plant response rating (0 to 10 scale),"corn; Preemergence, Rate 250 g/ha",0
same,Corn plant response rating,corn; [11],0
same,"Plant response rating, Corn",corn; [6],0
same,Rape plant response rating,rape; [1],0
same,Rape plant response rating,rape; [2],0
same,"Plant response rating, Rape",rape; [3],3
same,"Plant response rating, Rape",rape; [4],0
same,Rape plant response rating,rape; [5],0
same,Rape plant response rating (0 to 10 scale),"rape; Preemergence, Rate 250 g/ha",0
same,"Plant response rating, Rape",rape; [6],3
same,"Plant response rating, S. Flatsedge (0 to 10 scale, 0 is no effect, 10 is complete control)",smallflower flatsedge; [7],0
same,"S. Flatsedge plant response rating (0 to 10 scale, 0 is no effect, 10 is complete control)",smallflower flatsedge; [8],0
same,S. Flatsedge plant response rating,smallflower flatsedge; [9],0
same,S. Flatsedge plant response rating,smallflower flatsedge; [10],0
same,Soybean plant response rating,soybean; [1],3
same,Soybean plant response rating,soybean; [2],3
same,"Plant response rating, Soybean",soybean; [3],5
same,"Plant response rating, Soybean",soybean; [4],0
same,Soybean plant response rating,soybean; [5],0
same,Soybean plant response rating (0 to 10 scale),"soybean; Preemergence, Rate 250 g/ha",0
same,Soybean plant response rating,soybean; [11],0
same,"Plant response rating, Soybean",soybean; [6],5
same,Sugarbeets plant response rating,sugar beet; [1],0
same,Sugarbeets plant response rating,sugar beet; [2],0
same,"Plant response rating, Sugarbeets",sugar beet; [3],2
same,"Plant response rating, Sugarbeets",sugar beet; [4],0
same,Sugarbeets plant response rating,sugar beet; [5],0
same,Sugarbeets plant response rating (0 to 10 scale),"sugar beet; Preemergence, Rate 250 g/ha",0
same,"Plant response rating, Sugarbeets",sugar beet; [6],0
same,Cocklebur plant response rating,cocklebur; [1],0
same,Cocklebur plant response rating,cocklebur; [2],0
same,"Plant response rating, Cocklebur",cocklebur; [3],3
same,"Plant response rating, Cocklebur",cocklebur; [4],0
same,Cocklebur plant response rating,cocklebur; [5],0
same,Cocklebur plant response rating (0 to 10 scale),"cocklebur; Preemergence, Rate 250 g/ha",0
same,Cocklebur plant response rating,cocklebur; [11],0
same,"Plant response rating, Cocklebur",cocklebur; [6],2
same,Redroot pigweed plant response rating,pigweed; [1],0
same,Redroot pigweed plant response rating,pigweed; [2],0
same,"Plant response rating, Redroot pigweed",pigweed; [3],0
same,"Plant response rating, Redroot pigweed",pigweed; [4],0
same,Redroot pigweed plant response rating,pigweed; [5],0
same,Redroot pigweed plant response rating (0 to 10 scale),"pigweed; Preemergence, Rate 250 g/ha",0
same,"Plant response rating, Redroot pigweed",pigweed; [6],0
same,"Plant response rating, Barnyardgrass (0 to 10 scale, 0 is no effect, 10 is complete control)",bamyardgrass; [7],0
same,"Barnyardgrass plant response rating (0 to 10 scale, 0 is no effect, 10 is complete control)",bamyardgrass; [8],0
same,Barnyardgrass plant response rating,bamyardgrass; [9],0
same,Barnyardgrass plant response rating,bamyardgrass; [10],0
same,Crabgrass plant response rating,crabgrass; [1],3
same,Crabgrass plant response rating,crabgrass; [2],9
same,"Plant response rating, Crabgrass",crabgrass; [3],10
same,"Plant response rating, Crabgrass",crabgrass; [4],7
same,Crabgrass plant response rating,crabgrass; [5],9
same,Crabgrass plant response rating (0 to 10 scale),"crabgrass; Preemergence, Rate 250 g/ha",10
same,Crabgrass plant response rating,crabgrass; [11],10
same,"Plant response rating, Crabgrass",crabgrass; [6],9
same,Bedstraw plant response rating,bedstraw; [1],0
same,Bedstraw plant response rating,bedstraw; [2],0
same,"Plant response rating, Bedstraw",bedstraw; [3],8
same,"Plant response rating, Bedstraw",bedstraw; [4],0
same,Bedstraw plant response rating,bedstraw; [5],0
same,Bedstraw plant response rating (0 to 10 scale),"bedstraw; Preemergence, Rate 250 g/ha",0
same,"Plant response rating, Bedstraw",bedstraw; [6],0
same,Morningglory plant response rating,morningglory; [1],2
same,Morningglory plant response rating,morningglory; [2],3
same,"Plant response rating, Morningglory",morningglory; [3],5
same,"Plant response rating, Morningglory",morningglory; [4],0
same,Morningglory plant response rating,morningglory; [5],0
same,Morningglory plant response rating (0 to 10 scale),"morningglory; Preemergence, Rate 250 g/ha",0
same,Morningglory plant response rating,morningglory; [11],3
same,"Plant response rating, Morningglory",morningglory; [6],5
same,B. signalgrass plant response rating,surinam grass; [1],0
same,B. signalgrass plant response rating,surinam grass; [2],0
same,"Plant response rating, B. signalgrass",surinam grass; [3],0
same,"Plant response rating, B. signalgrass",surinam grass; [4],0
same,B. signalgrass plant response rating,surinam grass; [5],0
same,"B. signalgrass plant response rating (0 to 10 scale, 0 is no effect, 10 is complete control)","surinam grass; Preemergence, Rate 250 g/ha",0
same,"Plant response rating, B. signalgrass",surinam grass; [6],0
